≈ marks a conversion by molar mass, not a printed value. Read-outs that look alike come from different tables or passages of the source.
Tests used:
Format in all cases: cell-based
Aeromonas hydrophila [1] = experiment: In vitro antibacterial activity on pathogenic bacteria for fish (agar MIC, Test Example 1); settings: 20 h; for MIC (minimum growth-inhibition concentration): Mueller-Hinton agar; for MIC: Aeromonas hydrophila
Protocol: (§1) In vitro antibacterial activity on pathogenic-bacteria for fish
(§2) Each of the test strains was cultured over-night, and each culture broth (containing about 10^6 cells/ml) was innoculated in Mueller-Hinton agar (DIFCO) supplied with 1.0-2.0% sodium chloride and containing the test compound at each specified concentration.

Vibrio anguillarum [2] = experiment: as above; settings: 20 h; for MIC: Vibrio anguillarum, read-out: MIC (minimum growth-inhibition concentration); for MIC (minimum growth-inhibition concentration): Mueller-Hinton agar
Protocol: as §1, §2

Pasteurella piscicida [3] = experiment: as above; settings: 20 h; for MIC (minimum growth-inhibition concentration): Mueller-Hinton agar; for MIC: Photobacterium damselae
Protocol: as §1, §2

Streptococcus sp. = experiment: In vitro antibacterial activity of Compound D against various pathogenic bacteria for fish (agar MIC, Test Example 2); settings: 20 h, read-out: MIC (minimum growth-inhibition concentration)
Protocol: (§3) In vitro antibacterial activity of Compound D against Various Pathogenic Bacteria for Fish
(§4) Each of the test strains was cultured over-night, and the resultant culture broth (containing about 10^6 cells/ml) was innoculated in Mueller-Hinton agar (DIFCO) supplied with 1.0-2.0% sodium chloride and containing the test compound at the specified concentration.

Aeromonas salmonicida = experiment: as above; settings: 20 h, read-out: MIC (minimum growth-inhibition concentration)
Protocol: as §3, §4

Edwardsiella tarda = experiment: as above; settings: 20 h, read-out: MIC (minimum growth-inhibition concentration)
Protocol: as §3, §4

Vibrio anguillarum [4] = experiment: as above; settings: 20 h
Protocol: as §3, §4

Pasteurella piscicida [5] = experiment: as above; settings: Photobacterium damselae, 20 h, read-out: MIC (minimum growth-inhibition concentration)
Protocol: as §3, §4

[6] = system: Pseudomonas anguilliseptica; experiment: as above; settings: 20 h, read-out: MIC (minimum growth-inhibition concentration)
Protocol: as §3, §4

Aeromonas hydrophila [7] = experiment: as above; settings: 20 h, read-out: MIC (minimum growth-inhibition concentration)
Protocol: as §3, §4

[8] = Aeromonas hydrophila strain C 44, 25-30 °C
[9] = Aeromonas hydrophila strain KA8414, 25-30 °C
[10] = Aeromonas hydrophila strain KA8416, 25-30 °C
[11] = Aeromonas hydrophila strain M 183, 25-30 °C
[12] = Aeromonas hydrophila strain KA8301, Mueller-Hinton agar, 25-30 °C, read-out: MIC (minimum growth-inhibition concentration)
[13] = Vibrio anguillarum strain NA8340, Mueller-Hinton agar, 25-30 °C
[14] = Vibrio anguillarum strain NA8341, Mueller-Hinton agar, 25-30 °C
[15] = Vibrio anguillarum strain NA8346, Mueller-Hinton agar, 25-30 °C
[16] = Vibrio anguillarum strain NA8347, Mueller-Hinton agar, 25-30 °C
[17] = Vibrio anguillarum strain NH8410, Mueller-Hinton agar, 25-30 °C
[18] = Pasteurella piscicida strain EH8309, 25-30 °C
[19] = Pasteurella piscicida strain NG8319, 25-30 °C
[20] = Pasteurella piscicida strain EH8304, Mueller-Hinton agar, 25-30 °C, read-out: MIC (minimum growth-inhibition concentration)
[21] = Pasteurella piscicida strain EH8312, Mueller-Hinton agar, 25-30 °C, read-out: MIC (minimum growth-inhibition concentration)
[22] = Pasteurella piscicida strain EH8313, Mueller-Hinton agar, 25-30 °C, read-out: MIC (minimum growth-inhibition concentration)
[23] = 25 strains, Mueller-Hinton agar, 25-30 °C
[24] = Vibrio anguillarum strain NA8340, 25-30 °C
[25] = Vibrio anguillarum strain NA8341, 25-30 °C
[26] = Vibrio anguillarum strain NA8346, 25-30 °C
[27] = Vibrio anguillarum strain NA8347, 25-30 °C

Compound	MIC (minimum growth-inhibition concentration) (Aeromonas hydrophila [1]; [8]) [µg/mL]	MIC (minimum growth-inhibition concentration) (Aeromonas hydrophila [1]; [9]) [µg/mL]	MIC (minimum growth-inhibition concentration) (Aeromonas hydrophila [1]; [10]) [µg/mL]	MIC (minimum growth-inhibition concentration) (Aeromonas hydrophila [1]; [11]) [µg/mL]	MIC (Aeromonas hydrophila [1]; [12]) [µg/mL]	MIC (Vibrio anguillarum [2]; [13]) [µg/mL]	MIC (Vibrio anguillarum [2]; [14]) [µg/mL]	MIC (Vibrio anguillarum [2]; [15]) [µg/mL]	MIC (Vibrio anguillarum [2]; [16]) [µg/mL]	MIC (Vibrio anguillarum [2]; [17]) [µg/mL]	MIC (minimum growth-inhibition concentration) (Pasteurella piscicida [3]; [18]) [µg/mL]	MIC (minimum growth-inhibition concentration) (Pasteurella piscicida [3]; [19]) [µg/mL]	MIC (Pasteurella piscicida [3]; [20]) [µg/mL]	MIC (Pasteurella piscicida [3]; [21]) [µg/mL]	MIC (Pasteurella piscicida [3]; [22]) [µg/mL]	MIC (minimum growth-inhibition concentration) (Vibrio anguillarum [2]; [24]) [µg/mL]	MIC (minimum growth-inhibition concentration) (Vibrio anguillarum [2]; [25]) [µg/mL]	MIC (minimum growth-inhibition concentration) (Vibrio anguillarum [2]; [26]) [µg/mL]	MIC (minimum growth-inhibition concentration) (Vibrio anguillarum [2]; [27]) [µg/mL]	other results
CCN1CCN(c2cc3c(cc2F)c(=O)c(C(=O)O)cn3C2CC2)CC1 [Compound D, 1-cyclopropyl-6-fluoro-1,4-dihydro-4-oxo-7-(4-ethylpiperazino)-quinoline-3-carboxylic acid]	< 0.0125	< 0.0125	< 0.0125	< 0.0125	0.025 (≈ 0.0696 µM)	0.025 (≈ 0.0696 µM)	0.025 (≈ 0.0696 µM)	0.025 (≈ 0.0696 µM)	0.025 (≈ 0.0696 µM)	0.025 (≈ 0.0696 µM)	0.025 (≈ 0.0696 µM)	0.025 (≈ 0.0696 µM)	0.05 (≈ 0.139 µM)	0.05 (≈ 0.139 µM)	0.05 (≈ 0.139 µM)	–	–	–	–	MIC (Streptococcus sp.; Streptococcus sp., 25 strains, Mueller-Hinton agar, 25-30 °C): 0.8 µg/mL (≈ 2.23 µM); MIC (Aeromonas salmonicida; [23]): 0.0125 to 0.1 µg/mL (≈ 0.0348 to 0.278 µM); MIC (Edwardsiella tarda; [23]): 0.025 to 0.2 µg/mL (≈ 0.0696 to 0.556 µM); MIC (Vibrio anguillarum [4]; Ayu origin, 25 strains, Mueller-Hinton agar, 25-30 °C, read-out: MIC (minimum growth-inhibition concentration)): 0.025 to 0.4 µg/mL (≈ 0.0696 to 1.11 µM); MIC (Vibrio anguillarum [4]; Yellowtail origin, 25 strains, Mueller-Hinton agar, 25-30 °C, read-out: MIC (minimum growth-inhibition concentration)): 0.05 to 0.1 µg/mL (≈ 0.139 to 0.278 µM); MIC (Pasteurella piscicida [5]; Pasteurella piscicida, 25 strains, Mueller-Hinton agar, 25-30 °C): 0.0125 to 0.05 µg/mL (≈ 0.0348 to 0.139 µM); MIC ([6]; 18 strains, Mueller-Hinton agar, 25-30 °C): 0.0125 to 0.025 µg/mL (≈ 0.0348 to 0.0696 µM)
CCN1CCN(c2cc3c(cc2F)c(=O)c(C(=O)O)cn3C2CC2)CC1 [Compound G, embonate of 1-cyclopropyl-6-fluoro-1,4-dihydro-4-oxo-7-(4-ethylpiperazino)-quinoline-3-carboxylic acid]	0.05 (≈ 0.139 µM)	0.05 (≈ 0.139 µM)	0.05 (≈ 0.139 µM)	0.05 (≈ 0.139 µM)	–	–	–	–	–	–	0.1 (≈ 0.278 µM)	0.01 (≈ 0.0278 µM)	–	–	–	0.05 (≈ 0.139 µM)	0.05 (≈ 0.139 µM)	0.05 (≈ 0.139 µM)	0.05 (≈ 0.139 µM)	MIC (minimum growth-inhibition concentration) (Aeromonas hydrophila [1]; Aeromonas hydrophila strain KA8301, 25-30 °C): 0.05 µg/mL (≈ 0.139 µM); MIC (minimum growth-inhibition concentration) (Vibrio anguillarum [2]; Vibrio anguillarum strain NH8410, 25-30 °C): 0.05 µg/mL (≈ 0.139 µM); MIC (minimum growth-inhibition concentration) (Pasteurella piscicida [3]; Pasteurella piscicida strain EH8304, 25-30 °C): 0.1 µg/mL (≈ 0.278 µM); MIC (minimum growth-inhibition concentration) (Pasteurella piscicida [3]; Pasteurella piscicida strain EH8312, 25-30 °C): 0.05 µg/mL (≈ 0.139 µM); MIC (minimum growth-inhibition concentration) (Pasteurella piscicida [3]; Pasteurella piscicida strain EH8313, 25-30 °C): 0.05 µg/mL (≈ 0.139 µM)
CCOC(=O)c1cn(C2CC2)c2cc(N3CCN(CC)CC3)c(F)cc2c1=O [Compound H, ethyl 1-cyclopropyl-6-fluoro-1,4-dihydro-4-oxo-7-(4-ethylpiperazino)-quinoline-3-carboxylate]	–	–	–	–	12.5 (≈ 32.3 µM)	25 (≈ 64.5 µM)	25 (≈ 64.5 µM)	12.5 (≈ 32.3 µM)	12.5 (≈ 32.3 µM)	12.5 (≈ 32.3 µM)	–	–	25 (≈ 64.5 µM)	12.5 (≈ 32.3 µM)	12.5 (≈ 32.3 µM)	–	–	–	–	MIC (Aeromonas hydrophila [1]; Aeromonas hydrophila strain C 44, Mueller-Hinton agar, 25-30 °C, read-out: MIC (minimum growth-inhibition concentration)): 50 µg/mL (≈ 129 µM); MIC (Aeromonas hydrophila [1]; Aeromonas hydrophila strain KA8414, Mueller-Hinton agar, 25-30 °C, read-out: MIC (minimum growth-inhibition concentration)): 25 µg/mL (≈ 64.5 µM); MIC (Aeromonas hydrophila [1]; Aeromonas hydrophila strain KA8416, Mueller-Hinton agar, 25-30 °C, read-out: MIC (minimum growth-inhibition concentration)): 12.5 µg/mL (≈ 32.3 µM); MIC (Aeromonas hydrophila [1]; Aeromonas hydrophila strain M 183, Mueller-Hinton agar, 25-30 °C, read-out: MIC (minimum growth-inhibition concentration)): 12.5 µg/mL (≈ 32.3 µM); MIC (Pasteurella piscicida [3]; Pasteurella piscicida strain EH8309, Mueller-Hinton agar, 25-30 °C, read-out: MIC (minimum growth-inhibition concentration)): 25 µg/mL (≈ 64.5 µM); MIC (Pasteurella piscicida [3]; Pasteurella piscicida strain NG8319, Mueller-Hinton agar, 25-30 °C, read-out: MIC (minimum growth-inhibition concentration)): 25 µg/mL (≈ 64.5 µM)
CCn1cc(C(=O)O)c(=O)c2cc3c(cc21)OCO3 [Compound OA, 1-ethyl-1,4-dihydro-6,7-methylenedioxy-4-oxo-3-quinolinecarboxylic acid, reference compound]	–	–	–	–	–	–	–	–	–	–	–	–	–	–	–	0.05 (≈ 0.191 µM)	0.05 (≈ 0.191 µM)	0.05 (≈ 0.191 µM)	0.05 (≈ 0.191 µM)	MIC (Aeromonas hydrophila [1]; read-out: MIC (minimum growth-inhibition concentration), Aeromonas hydrophila strain C 44, Mueller-Hinton agar, 25-30 °C): < 0.0125 µg/mL; MIC (Aeromonas hydrophila [1]; read-out: MIC (minimum growth-inhibition concentration), Aeromonas hydrophila strain KA8301, Mueller-Hinton agar, 25-30 °C): < 0.0125 µg/mL; MIC (Aeromonas hydrophila [1]; read-out: MIC (minimum growth-inhibition concentration), Aeromonas hydrophila strain KA8414, Mueller-Hinton agar, 25-30 °C): < 0.0125 µg/mL; MIC (Aeromonas hydrophila [1]; read-out: MIC (minimum growth-inhibition concentration), Aeromonas hydrophila strain KA8416, Mueller-Hinton agar, 25-30 °C): < 0.0125 µg/mL; MIC (Aeromonas hydrophila [1]; read-out: MIC (minimum growth-inhibition concentration), Aeromonas hydrophila strain M 183, Mueller-Hinton agar, 25-30 °C): < 0.0125 µg/mL; MIC (Vibrio anguillarum [2]): 0.05 µg/mL (≈ 0.191 µM); MIC (Pasteurella piscicida [3]; read-out: MIC (minimum growth-inhibition concentration), Pasteurella piscicida strain EH8304, Mueller-Hinton agar, 25-30 °C): 0.1 µg/mL (≈ 0.383 µM); MIC (Pasteurella piscicida [3]; read-out: MIC (minimum growth-inhibition concentration), Pasteurella piscicida strain EH8309, Mueller-Hinton agar, 25-30 °C): 0.1 µg/mL (≈ 0.383 µM); MIC (Pasteurella piscicida [3]; read-out: MIC (minimum growth-inhibition concentration), Pasteurella piscicida strain EH8312, Mueller-Hinton agar, 25-30 °C): 0.1 µg/mL (≈ 0.383 µM); MIC (Pasteurella piscicida [3]; read-out: MIC (minimum growth-inhibition concentration), Pasteurella piscicida strain EH8313, Mueller-Hinton agar, 25-30 °C): 0.1 µg/mL (≈ 0.383 µM); MIC (Pasteurella piscicida [3]; read-out: MIC (minimum growth-inhibition concentration), Pasteurella piscicida strain NG8319, Mueller-Hinton agar, 25-30 °C): 0.1 µg/mL (≈ 0.383 µM); MIC (Aeromonas hydrophila [7]): 0.0125 to 0.025 µg/mL (≈ 0.0479 to 0.0957 µM); MIC (Streptococcus sp.; Streptococcus): 200 to 400 µg/mL (≈ 766 to 1530 µM); MIC (Aeromonas salmonicida): 0.05 to 3.2 µg/mL (≈ 0.191 to 12.2 µM); MIC (Edwardsiella tarda): 0.05 to 1.6 µg/mL (≈ 0.191 to 6.12 µM); MIC (Vibrio anguillarum [4]; read-out: MIC (minimum growth-inhibition concentration), Vibrio anguillarum, Ayu origin, 25 strains, Mueller-Hinton agar, 25-30 °C): 0.05 to 25 µg/mL (≈ 0.191 to 95.7 µM); MIC (Vibrio anguillarum [4]; read-out: MIC (minimum growth-inhibition concentration), Vibrio anguillarum, Yellowtail origin, 25 strains, Mueller-Hinton agar, 25-30 °C): 0.025 to 0.05 µg/mL (≈ 0.0957 to 0.191 µM); MIC (Pasteurella piscicida [5]): 0.025 to 0.1 µg/mL (≈ 0.0957 to 0.383 µM); MIC [6]: 0.0125 to 0.05 µg/mL (≈ 0.0479 to 0.191 µM)
